# Data as given in publication PMC9033141, “Beta and Gamma Amino Acid-Substituted Benzenesulfonamides as Inhibitors of Human Carbonic Anhydrases” (Pharmaceuticals, 2022).
# Where “and” joins values, the source holds several entries; their conditions need not be identical. Equal entries are not always repeated. Where two headings read alike, the source gives them in different places.
# How the values were obtained:
# CAII = target: T1, CAII (Homo sapiens, UniProt P00918); experiment: biochemical; assay type: binding; settings: FTSA;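 further: recombinant human CAII, thermal shift with ANS dye fluorescence, Kd_obs from fitting melting temperature versus ligand concentration, intrinsic values corrected for deprotonated sulfonamide and Zn-bound water fractions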
# T1 construct: made in house; host or cells: E. coli
# Protocol: (§1) Human CA isozymes were expressed in E. coli (CAI, II, III, IV, VA, VB, VII, XII, XIII, XIV) or mammalian cells (CAVI and CAIX), chromatographically purified following the published protocols [47], and stored at −80 °C. The protein concentration was determined by UV absorption at 280 nm using Beer–Lambert law.
# (§2) The QIAGEN Rotor-Gene Q was used to carry out the experiments, with a blue channel used for excitation (365 nm) and detection (460 nm). FTSA in this case relies on an extrinsic probe, 8-anilino-1-naphthalenesulfonate (ANS), to detect the fluorescence increase during protein denaturation, from which protein melting temperature (Tm) can be determined. […] The observed affinity of ligands for CAs was determined by plotting the Tm as a function of ligand concentration and then fitting a curve as described previously [48]. […] Samples were heated from 25 °C to 99 °C at the speed of 1 °C/min.
# (§3) The intrinsic thermodynamic parameters were calculated as described in [40]. The intrinsic reaction of inhibitor binding to CA is shown in Equation (1).
# (§4) When calculating Kd_int values, these protein and ligand fractions from Equation (1) have to be accounted for (Equations (2) and (3)). The intrinsic dissociation constant is calculated by multiplying Kd_obs value by the corresponding fractions of protein and ligand (Equation (4)). (2) fRSO2NH^−=10^pH−pKa_RSO2NH2/1+10^pH−pKa_RSO2NH2 (3) fCAZnH2O=1−10^pH−pKa_CAZnH2O/1+10^pH−pKa_CAZnH2O (4) Kd_int=Kd_obs×fRSO2NH^−×fCAZnH2O (5) ΔGint0=RTlnKd_int
# (§5) The intrinsic standard Gibbs energy changes upon binding were calculated using Equation (5). Here, R—universal ideal gas constant (8.3144 J/mol·K), T—absolute temperature (310.15 K).
# CAIX = target: T2, CAIX (Homo sapiens, UniProt Q16790); experiment: biochemical; assay type: binding; settings: FTSA
# T2 construct: made in house
# Protocol: as §1, §2, §3, §4, §5
# CAXIII = CAXIII (Homo sapiens, UniProt Q8N1Q1); experiment: biochemical; settings: FTSA;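 further: recombinant human CAXIII melting temperature tracked by ANS fluorescence in thermal shift assay, Tm fitted against ligand concentration, intrinsic value corrects Kd for deprotonated sulfonamide and Zn-bound water fractions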
# CAXII = target: T3, CAXII (Homo sapiens, UniProt O43570); experiment: biochemical; assay type: binding; settings: FTSA
# T3 construct: made in house; host or cells: E. coli
# CAI = target: T4, CAI (Homo sapiens, UniProt P00915); experiment: biochemical; assay type: binding; settings: FTSA
# T4 construct: made in house; host or cells: E. coli
# Protocol: as §1, §2, §3, §4, §5
# [1] = pH 7.0, 37 °C, read-out: Observed Dissociation Constant (Kd_obs), CAII
# [2] = pH 7.0, 37 °C, read-out: Observed Dissociation Constant (Kd_obs), CAIX
# [3] = Observed Dissociation Constant (Kd_obs), pH 7.0, 37 °C
# [4] = pH 7.0, 37 °C, read-out: Observed Dissociation Constant (Kd_obs), CAXII
# [5] = pH 7.0, 37 °C, read-out: Observed Dissociation Constant (Kd_obs), CAI
# 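Wherever Observed Dissociation Constant (Kd obs), CAXII is given: recombinant CAXII made in E. coli, ANS-fluorescence thermal shift with affinity fitted from Tm versus ligand concentration, intrinsic energy from Kd_obs corrected for deprotonated sulfonamide and Zn-water fractions.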
# T4 sequence (P00915 whole entry): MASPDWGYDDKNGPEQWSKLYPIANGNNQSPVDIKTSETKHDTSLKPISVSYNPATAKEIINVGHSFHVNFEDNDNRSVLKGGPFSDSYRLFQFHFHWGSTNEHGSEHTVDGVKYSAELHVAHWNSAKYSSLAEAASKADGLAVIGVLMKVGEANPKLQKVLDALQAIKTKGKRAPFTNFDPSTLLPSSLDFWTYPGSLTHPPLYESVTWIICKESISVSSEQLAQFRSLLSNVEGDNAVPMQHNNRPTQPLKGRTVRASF
# CAXIII, sequence (Q8N1Q1 whole entry): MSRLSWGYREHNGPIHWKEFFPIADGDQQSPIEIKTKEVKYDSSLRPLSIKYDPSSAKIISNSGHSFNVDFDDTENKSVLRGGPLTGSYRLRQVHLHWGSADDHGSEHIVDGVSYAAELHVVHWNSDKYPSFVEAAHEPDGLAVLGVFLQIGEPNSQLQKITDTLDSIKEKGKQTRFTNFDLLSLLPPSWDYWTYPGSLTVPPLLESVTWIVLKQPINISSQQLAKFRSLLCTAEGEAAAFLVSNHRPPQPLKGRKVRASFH
# T3 sequence (O43570 25-354): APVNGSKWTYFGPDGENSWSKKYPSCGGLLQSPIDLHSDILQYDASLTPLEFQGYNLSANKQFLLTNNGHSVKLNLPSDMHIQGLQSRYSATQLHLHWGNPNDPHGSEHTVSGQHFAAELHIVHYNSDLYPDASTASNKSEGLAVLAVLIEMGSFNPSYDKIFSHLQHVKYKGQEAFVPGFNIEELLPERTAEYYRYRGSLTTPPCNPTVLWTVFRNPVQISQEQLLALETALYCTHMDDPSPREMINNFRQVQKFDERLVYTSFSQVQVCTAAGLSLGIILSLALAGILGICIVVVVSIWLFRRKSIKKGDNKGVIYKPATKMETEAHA
Structure (SMILES),Kd (CAII; [1]) [µM],Kd (CAIX; [2]) [µM],Kd (CAXIII; [3]) [µM],melting point [°C],Kd (CAXII; [4]) [µM],Kd (CAI; [5]) [µM],"Kd (CAII; read-out: Kd_obs, CAII) [µM]","Kd (CAIX; read-out: Kd_obs, CAIX)",Kd (CAXIII; Kd_obs) [µM],"Kd (CAXII; read-out: Kd_obs, CAXII) [µM]","Kd (CAI; read-out: Kd_obs, CAI) [µM]"
"NS(=O)(=O)c1ccc(NCC(CC(=O)NN=Cc2ccccc2Cl)C(=O)NN=Cc2ccccc2Cl)cc1 (stereo not shown) [Compound 10a, 4-((2-(2-(2-Chlorobenzylidene)hydrazine-1-carbonyl)-4-(2-(2-chlorobenzylidene)hydrazineyl)-4-oxobutyl)amino)benzenesulfonamide]",2.5,0.5,1.7,174 to 175,50,17,–,–,–,–,–
"NS(=O)(=O)c1ccc(NCC(CC(=O)NN=Cc2ccccc2Cl)C(=O)NN=Cc2ccccc2Cl)c(Cl)c1 (stereo not shown) [Compound 10b, 3-Chloro-4-((2-(2-(2-chlorobenzylidene)hydrazine-1-carbonyl)-4-(2-(2-chlorobenzylidene)hydrazineyl)-4-oxobutyl)amino)benzenesulfonamide]",0.33,0.13,0.13,203 to 204,50,1.7,–,–,–,–,–
"NS(=O)(=O)c1ccc(NCC(CC(=O)NN=Cc2ccccc2[N+](=O)[O-])C(=O)NN=Cc2ccccc2[N+](=O)[O-])c(Cl)c1 (stereo not shown) [Compound 15b, 3-Chloro-4-((2-(2-(2-nitrobenzylidene)hydrazine-1-carbonyl)-4-(2-(2-nitrobenzylidene)hydrazineyl)-4-oxobutyl)amino)benzenesulfonamide]",0.5,0.14,0.4,178 to 179,50,2.5,–,–,–,–,–
"NS(=O)(=O)c1ccc(NCC(CC(=O)NN=Cc2ccccc2O)C(=O)NN=Cc2ccccc2O)cc1 (stereo not shown) [Compound 7a, 4-((2-(2-(2-Hydroxybenzylidene)hydrazine-1-carbonyl)-4-(2-(2-hydroxybenzylidene)hydrazineyl)-4-oxobutyl)amino)benzenesulfonamide]",2,0.5,10,177 to 178,20,6.7,–,–,–,–,–
"CCC(C)=NN1C(=O)CC(CNc2ccc(S(N)(=O)=O)cc2Cl)C1=O (stereo not shown) [Compound 4b, 4-(((1-(Butan-2-ylideneamino)-2,5-dioxopyrrolidin-3-yl)methyl)amino)-3-chlorobenzenesulfonamide]",0.33,0.25,1.3,92 to 93,4,2.9,–,–,–,–,–
"NS(=O)(=O)c1ccc(NCC(CC(=O)NN=Cc2ccc(Cl)cc2)C(=O)NN=Cc2ccc(Cl)cc2)c(Cl)c1 (stereo not shown) [Compound 12b, 3-Chloro-4-((2-(2-(4-chlorobenzylidene)hydrazine-1-carbonyl)-4-(2-(4-chlorobenzylidene)hydrazineyl)-4-oxobutyl)amino)benzenesulfonamide]",1.1,0.67,1.5,211 to 212,57,6.7,–,–,–,–,–
"NS(=O)(=O)c1ccc(NCC(Cc2n[nH]c(=S)n2-c2ccccc2)c2n[nH]c(=S)n2-c2ccccc2)cc1 (stereo not shown) [Compound 25a, 4-((2,3-bis(4-Phenyl-5-thioxo-4,5-dihydro-1H-1,2,4-triazol-3-yl)propyl)amino)benzenesulfonamide]",3.3,0.1,25,258 to 259,4,100,–,–,–,–,–
"NS(=O)(=O)c1ccc(NCC(CC(=O)NN=Cc2cccc(Cl)c2)C(=O)NN=Cc2cccc(Cl)c2)c(Cl)c1 (stereo not shown) [Compound 11b, 3-Chloro-4-((2-(2-(3-chlorobenzylidene)hydrazine-1-carbonyl)-4-(2-(3-chlorobenzylidene)hydrazineyl)-4-oxobutyl)amino)benzenesulfonamide]",0.33,0.13,0.33,175 to 176,33,2.5,–,–,–,–,–
"NS(=O)(=O)c1ccc(NCC(CC(=O)NN=Cc2cccc([N+](=O)[O-])c2)C(=O)NN=Cc2cccc([N+](=O)[O-])c2)cc1 (stereo not shown) [Compound 16a, 4-((2-(2-(3-Nitrobenzylidene)hydrazine-1-carbonyl)-4-(2-(3-nitrobenzylidene)hydrazineyl)-4-oxobutyl)amino)benzenesulfonamide]",4,1.4,14,218 to 219,50,20,–,–,–,–,–
"COc1ccc(C=NNC(=O)CC(CNc2ccc(S(N)(=O)=O)cc2Cl)C(=O)NN=Cc2ccc(OC)cc2)cc1 (stereo not shown) [Compound 14b, 3-Chloro-4-((2-(2-(4-methoxybenzylidene)hydrazine-1-carbonyl)-4-(2-(4-methoxybenzylidene)hydrazineyl)-4-oxobutyl)amino)benzenesulfonamide]",0.059,0.29,0.066,198 to 199,10,0.51,–,–,–,–,–
"CC(=NNC(=O)CC(CNc1ccc(S(N)(=O)=O)cc1Cl)C(=O)NN=C(C)c1ccccc1)c1ccccc1 (stereo not shown) [Compound 5b, 3-Chloro-4-((4-oxo-2-(2-(1-phenylethylidene)hydrazine-1-carbonyl)-4-(2-(1-phenylethylidene)hydrazineyl)butyl)amino)benzenesulfonamide]",0.25,0.18,0.4,158 to 159,6.7,4,–,–,–,–,–
"CC(C)=NNC(=O)CC(CNc1ccc(S(N)(=O)=O)cc1Cl)C(=O)NN=C(C)C (stereo not shown) [Compound 3b, 3-Chloro-4-((4-oxo-2-(2-(propan-2-ylidene)hydrazine-1-carbonyl)-4-(2-(propan-2-ylidene)hydrazineyl)butyl)amino)benzenesulfonamide]",1.8,0.67,6.7,–,14,10,–,–,–,–,–

# Continued, values first:
Kd (CAII; [1]) [µM],Kd (CAIX; [2]) [µM],Kd (CAXIII; [3]) [µM],melting point [°C],Kd (CAXII; [4]) [µM],Kd (CAI; [5]) [µM],"Kd (CAII; read-out: Kd_obs, CAII) [µM]","Kd (CAIX; read-out: Kd_obs, CAIX)",Kd (CAXIII; Kd_obs) [µM],"Kd (CAXII; read-out: Kd_obs, CAXII) [µM]","Kd (CAI; read-out: Kd_obs, CAI) [µM]",Structure (SMILES)
1.7,0.56,4,195 to 196,10,10,–,–,–,–,–,"Cc1ccc(C)n1NC(=O)CC(CNc1ccc(S(N)(=O)=O)cc1)C(=O)Nn1c(C)ccc1C (stereo not shown) [Compound 19a, N^1,N^4-bis(2,5-Dimethyl-1H-pyrrol-1-yl)-2-(((4-sulfamoylphenyl)amino)methyl)succinamide]"
1.3,0.83,6.7,–,14,6.7,0.83 to 130,0.83 to 130 µM and 0.83 µM,0.83 to 130,0.83 to 130,0.83 to 130,"NNC(=O)CC(CNc1ccc(S(N)(=O)=O)cc1Cl)C(=O)NN (stereo not shown) [Compound 2b, 3-Chloro-4-((2-(hydrazinecarbonyl)-4-hydrazineyl-4-oxobutyl)amino)benzenesulfonamide]"
2,0.67,5,192 to 193,33,10,–,–,–,–,–,"NS(=O)(=O)c1ccc(NCC(CC(=O)NN=Cc2cccc(O)c2)C(=O)NN=Cc2cccc(O)c2)cc1 (stereo not shown) [Compound 8a, 4-((2-(2-(3-Hydroxybenzylidene)hydrazine-1-carbonyl)-4-(2-(3-hydroxybenzylidene)hydrazineyl)-4-oxobutyl)amino)benzenesulfonamide]"
1.8,0.56,7.7,208 to 209,25,14,–,–,–,–,–,"NS(=O)(=O)c1ccc(NCC(CC(=O)NN=Cc2ccccc2)C(=O)NN=Cc2ccccc2)cc1 (stereo not shown) [Compound 6a, 4-((2-(2-(Benzylidene)hydrazine-1-carbonyl)-4-(2-(benzylidene)hydrazineyl)-4-oxobutyl)amino)benzenesulfonamide]"
1.3,0.5,4.3,186 to 187,25,5.9,–,–,–,–,–,"NS(=O)(=O)c1ccc(NCC(CC(=O)NN=Cc2ccc(O)cc2)C(=O)NN=Cc2ccc(O)cc2)cc1 (stereo not shown) [Compound 9a, 4-((2-(2-(4-Hydroxybenzylidene)hydrazine-1-carbonyl)-4-(2-(4-hydroxybenzylidene)hydrazineyl)-4-oxobutyl)amino)benzenesulfonamide]"
14,4,130,164 to 165,71,78,0.83 to 130,0.83 to 130 µM,0.83 to 130,0.83 to 130,0.83 to 130,"NNC(=O)CC(CNc1ccc(S(N)(=O)=O)cc1)C(=O)NN (stereo not shown) [Compound 2a, 4-((2-(Hydrazinecarbonyl)-4-hydrazineyl-4-oxobutyl)amino)benzenesulfonamide]"
5,1,17,179 to 180,66,36,–,–,–,–,–,"NS(=O)(=O)c1ccc(NCC(CC(=O)NN=Cc2ccc(Cl)cc2)C(=O)NN=Cc2ccc(Cl)cc2)cc1 (stereo not shown) [Compound 12a, 4-((2-(2-(4-Chlorobenzylidene)hydrazine-1-carbonyl)-4-(2-(4-chlorobenzylidene)hydrazineyl)-4-oxobutyl)amino)benzenesulfonamide]"
13,6.7,100,–,110,170,–,–,–,–,–,"CC(C)=NNC(=O)CC(CNc1ccc(S(N)(=O)=O)cc1)C(=O)NN=C(C)C (stereo not shown) [Compound 3a, 4-((4-Oxo-2-(2-(propan-2-ylidene)hydrazine-1-carbonyl)-4-(2-(propan-2-ylidene)hydrazineyl)butyl)amino)benzenesulfonamide]"
